# In patent publication US20030114504A1, “Compositions and methods for the treatment of cancer” (priority 2001, published 2003):
# Legend:
# in vivo = details: Balb/c nu/nu nude, mouse, in vivo
# Description: (§1) In vivo Antitumor Testing
# (§2) Paclitaxel was dissolved in a 50/50 mixture of ethanol and Cremophor® and stored at 4° C.; final dilution of paclitaxel was obtained immediately before drug administration with NaCl 0.9%. 5-FU was dissolved in normal saline (NaCl 0.9%). […] The volume of all compounds injected was 0.01 ml/g of mouse weight.
# (§3) Solid Tumor Xenografts in Nude Mice.
# (§4) All solid tumors were maintained in Balb/c nu/nu nude mice. Tumors were propagated as subcutaneous transplants using tumor fragments obtained from donor mice. All tumor implants for efficacy testing were subcutaneous (sc).
# (§5) The required number of animals needed to detect a meaningful response were grouped at the start of the experiment and each was given a subcutaneous implant of a tumor fragment (˜50 mg) with a 13-gauge trocar. For treatment of early-stage tumors, the animals were again grouped before distribution to the various treatment and control groups. For treatment of animals with advanced-stage disease, tumors were allowed to grow to the pre-determined size window (animals with tumors outside the range were excluded) and animals were evenly distributed to various treatment and control groups. Treatment of each animal was based on individual body weight. Treated animals were checked daily for treatment related toxicity/mortality. Each group of animals was weighed before the initiation of treatment (Wt1) and then again following the last treatment dose (Wt2). The difference in body weight (Wt2-Wt1) provides a measure of treatment-related toxicity.
# (§6) Tumor response was determined by measurement of tumors with a caliper twice a week, until the tumors reach a predetermined “target” size of 1 g. Tumor weights (mg) were estimated from the Formula: […]
# (§7) Antitumor activity was evaluated at the maximum tolerated dose (MTD) which is defined as the dose level immediately […] which excessive toxicity (i.e. more than one death) occurred. […] When death occured, the day of death was recorded.
# (§8) Tumor response end-point was expressed in terms of tumor growth delay (T-C value), defined as the difference in time (days) required for the treated tumors (T) to reach a predetermined target size compared to those of the control group ®.
# (§9) To estimate tumor cell kill, the tumor volume doubling time (TVDT) was first calculated with the Formula:
# (§10) TVDT=Median time (days) for control tumors to reach target size−Median time (days) for control tumors to reach half the target size
# [1] = tested on: Colo205 human colon carcinoma; test: Colo205 xenograft in nude mice; details: for tumor regression: at MTD; for antitumor activity (in words): head-to-head at MTD
# Description: as §1, §2, §3, §4, §5, §6, §7, §8, §9, §10
# [2] = tested on: P388 mouse leukemia, Cyclin E transgenic mouse breast carcinoma, A2780, Colo205 and A431 tumor models; test: Multiple murine and human tumor models in vivo; set-up: species or system mice
# Description: The following tumors were used: A2780 human ovarian carcinoma, Br-cycE murine breast carcinoma, A431 human squamous cell carcinoma and Colo 205 colorectal carcinoma.
# Compound 1 was compared head to head with flavopiridol in each of these models.
# [3] = tested on: PARP cleavage in A2780S cells; test: PARP cleavage by western blot; type: cell-based, human; details: 24 hour time point
# Description: FIG. 3. […]. Protein extracts were then examined by western blot using an anti-PARP antibody (Clonetech). The arrow signifies caspase cleaved PARP protein fragment.
# Compound treated A2780S cells were harvested at approximately 70% confluence and total protein was prepared by lysing the cells in RIPA [50 mM Tris (pH8), 150 mM NaCl, 1% NP-40, 0.5% Na-deoxycolate, 0.1% SDS, 0.1% Na3VO4, 0.1 mM NaF, 10 mM β-glycerophosphate, plus Complete® protease inhibitors (Boehringer Mannhiem)] buffer. Cell pellets were resuspended at a density of<2×10^7 cells/ml and incubated for 20 minutes on ice followed by a high speed 14,000 rpm centrifugation. The protein supernatant was then removed from the debris and protein content was quantitated using the Micro-BCA assay (Pierce). Treated extracts (25 microgram/lane) were then separated using a 10% SDS-polyacrylamide gel (10.5×14 cm). Proteins were then transferred from the gel to PVDF-membrane (Millipore) by exposure to […] in a semi-dry blotting apparatus (Hoeffer). PVDF protein blots were then blocked with 5% non-fat milk in TTBS (0.1% Tween 20 in Tris-buffered saline). […]. The blots were then washed three times with TTBS and developed with ECL-plus western blotting detection system (Amersham).
# [4] = tested on: A2780 ovarian carcinoma cells; test: Clonogenic growth assay and drug combination studies; type: cell-based, human; details: clonogenic assays, single agent
# A2780S cells [5] = test: Inhibition of tumor cell proliferation in vitro, 72 hour treatment; type: cell-based; details: Homo sapiens
# A2780S cells [6] = test: Cell cycle analysis by flow cytometry; type: cell-based, human; details: 170 nM
# Description: Log phase A2780s cells were plated overnight in 6 well plates. […] Cells were harvested by trypsinization followed by centrifugation. Cell pellets were then resuspended by vortexing in 1 ml 80% methanol and fixed overnight at −20° C. Cells were recovered by centrifugation and washed two times with 1 ml of PBS. Cells were resuspended in 1 ml PBS, 2% FBS, 0.25% Triton X-100 and incubated at 4° C. for 10 minutes. Cells were again recovered by centrifugation and resuspended in 50 μl PBS, 2% FBS, 0.1% Triton X-100. Anti-Phospho-Threonine Proline antibody (IgM, New England Biolabs #9391S) was added and the cells were incubated for 30 minutes at 4° C. Cells were washed with PBS, 2% FBS, 0.1% Triton X-100 and resuspended in 50 μl PBS, 2% FBS, 0.1% Triton X-100. FITC-anti-Mouse antibody (Pharmingen #12064D) was added and incubated for 30 minutes at 4° C. in the dark. Cells were washed with PBS, 2% FBS, 0.1% Triton X-100 and resuspended in Propidium Iodide/RNase in PBS (10 μg/ml PI, 100 μg/ml RNase (DNase free)) and incubated at 37° C. for 30 minutes in the dark. Samples were analyzed using a flow cytometer.
# [7] = tested on: A2780 human ovarian carcinoma; test: A2780 xenograft in nude mice; type: in vivo
smiles,measurement,setting,value
"CC(C)(C)c1cnc(CSc2cnc(NC(=O)C3CCNCC3)s2)o1 [Compound 1, N-[5-[[[5-(1,1-Dimethylethyl)-2-oxazolyl]methyl]thio]-2-thiazolyl]-4-piperidinecarboxamide]",MTD at 8 days,in vivo; ip,36 mg/kg
same,log cell kill (LCK),"[1]; MTD of 36 mg/kg, IP, QD×8",> 2.0 LCK
same,tumor regression,[1],tumor regression
same,antitumor activity (in words),[1],marked antitumor activity
same,anti-tumor activity in vivo,[2],broad spectrum anti-tumor activity
same,PARP cleavage (caspase activation),[3],Extensive cleavage
same,drug exposure sufficient to elicit a maximal anti-proliferative response,[4],8 h
same,IC90,A2780S cells [5],170 nM
same,% Apo (sub-G1 cells by DNA staining),A2780S cells [6]; 8 hr. exposure,6%
same,% G1,A2780S cells [6]; 8 hr. exposure,56%
same,% G2,A2780S cells [6]; 8 hr. exposure,22%
same,% M,A2780S cells [6]; 8 hr. exposure,1%
same,% S,A2780S cells [6]; 8 hr. exposure,15%
same,% Apo (sub-G1 cells by DNA staining),A2780S cells [6]; 24 hr. exposure,32 ± 12%
same,% G1,A2780S cells [6]; 24 hr. exposure,45%
same,% G2,A2780S cells [6]; 24 hr. exposure,9.7%
same,% M,A2780S cells [6]; 24 hr. exposure,0.3%
same,% S,A2780S cells [6]; 24 hr. exposure,8%
same,schedule dependence of activity,[7]; IP,qdx8=qdx14>>>q2dx5=q4dx3
same,efficacy,"[7]; dosed IP, qdx8 schedule, multiple dose levels",curative efficacy
same,efficacy,"[7]; dosed orally, qdx8 schedule",modest efficacy
same,efficacy,[7]; single 24 hour continuous infusion at the MTD,curative efficacy
"CC(=O)O[C@H]1C(=O)[C@@]2(C)[C@H]([C@H](OC(=O)c3ccccc3)[C@]3(O)C[C@H](OC(=O)[C@H](O)[C@@H](NC(=O)c4ccccc4)c4ccccc4)C(C)=C1C3(C)C)[C@]1(OC(C)=O)CO[C@@H]1C[C@@H]2O [Paclitaxel, paclitaxel, reference compound]",MTD,in vivo; iv,36 mg/kg
same,antitumor activity (in words),[1],comparable to Compound 1
"O=c1[nH]cc(F)c(=O)[nH]1 [Compound 5-FU, 5-fluorouracil, reference compound]",tumor regression,[1],failed to achieve tumor regression
same,antitumor activity (in words),[1],considerably less active
